Laboratory results from US20080221017A1, “Pharmaceutical or cosmetic composition and use of a PKC inhibitor with an MMP inhibitor for inhibiting langerhans cell migration” (Laboratoires Expanscience, priority 2000, published 2008).

Test system: Langerhans cells (LCs)
Assay: Migration of LCs through Matrigel in a two-compartment culture chamber (DNSB-sensitized)
Format: cell-based, human
Conditions: for LC migration index: 18 h at 37° C., control cells fixed at 1
Description: Suspensions of epidermal cells were obtained by enzyme treatment (0.05% trypsin, for 18 h at +4° C.) of fragments of normal human skin derived from plastic surgery.
D-sphingosine was diluted in ethanol so as to obtain a stock solution at 5×10^−3 M. The D-sphingosine was used at a concentration of 2.5 μM, the dilution carried out in RPMI containing 1% of bovine serum albumin (RPMI-BSA).
A peptide extract of lupin was used as MMP inhibitor. It is the peptide extract LU105 from Laboratoires Pharmascience.
The cells were pre-incubated at 37° C. for 60 min in the presence of LU105, before adding to the medium the hapten DNSB as sensitizing agent.
As sensitizing agent, DNSB (Sigma Aldrich) was used, the soluble form of DNCB (dinitrochlorobenzene), and was solubilized in RPMI-BSA and used at a concentration of 50 μM.
A two-compartment culture chamber system (Falcon, Becton Dickinson, France) was used. The upper compartment is separated from the lower compartment by a membrane with a porosity of 8 μm, onto which are deposited 50 μg/cm^2 of Matrigel. The membrane is then covered with proteins, forming a film equivalent to a basal membrane (laminin, collagen IV, nidogen, entactin, heparan sulfate proteoglycans). The cells taken up in the RPMI-BSA medium alone or in the presence of the various products are placed in the upper compartment. Normal human fibroblast culture supernatant is added to the lower compartment. After incubation for 18 h at 37° C., the number of living cells which have crossed the Matrigel and are in the lower compartment is counted under a microscope (the LCs are easily identifiable by their dendritic shape). Each assay is carried out in triplicate.

CCCCCCCCCCCCC/C=C/[C@@H](O)[C@@H](N)CO (relative stereo) [D-sphingosine, D-erythro-1,3-dihydroxy-2-amino-4-trans-octadecene]
effect on the LC migration induced by DNSB (in words) (D-sphingosine 2.5 μM): significantly inhibits | LC migration index (DNSB+D-sphingosine (2.5 μM)): 1.15

O=[N+]([O-])c1ccc(S(=O)(=O)O)c([N+](=O)[O-])c1 [DNSB, reference compound]
LC migration index (cells sensitized with the hapten DNSB (50 μM) alone): 1.61 | increase of LC migration compared to the normal unstimulated cells (control cells) (treatment with the hapten DNSB alone): 61%
